Where two headings read alike, the source gives them in different places. Blank lines part the entries; values can stand above or below the compound they belong to.
Molecular target: T1, hTLR7 (Homo sapiens, UniProt Q9NYK1)
T1 construct: expressed in transfected cells; host or cells: HEK-Blue hTLR7 reporter cell line
T1 sequence (Q9NYK1 27-1049): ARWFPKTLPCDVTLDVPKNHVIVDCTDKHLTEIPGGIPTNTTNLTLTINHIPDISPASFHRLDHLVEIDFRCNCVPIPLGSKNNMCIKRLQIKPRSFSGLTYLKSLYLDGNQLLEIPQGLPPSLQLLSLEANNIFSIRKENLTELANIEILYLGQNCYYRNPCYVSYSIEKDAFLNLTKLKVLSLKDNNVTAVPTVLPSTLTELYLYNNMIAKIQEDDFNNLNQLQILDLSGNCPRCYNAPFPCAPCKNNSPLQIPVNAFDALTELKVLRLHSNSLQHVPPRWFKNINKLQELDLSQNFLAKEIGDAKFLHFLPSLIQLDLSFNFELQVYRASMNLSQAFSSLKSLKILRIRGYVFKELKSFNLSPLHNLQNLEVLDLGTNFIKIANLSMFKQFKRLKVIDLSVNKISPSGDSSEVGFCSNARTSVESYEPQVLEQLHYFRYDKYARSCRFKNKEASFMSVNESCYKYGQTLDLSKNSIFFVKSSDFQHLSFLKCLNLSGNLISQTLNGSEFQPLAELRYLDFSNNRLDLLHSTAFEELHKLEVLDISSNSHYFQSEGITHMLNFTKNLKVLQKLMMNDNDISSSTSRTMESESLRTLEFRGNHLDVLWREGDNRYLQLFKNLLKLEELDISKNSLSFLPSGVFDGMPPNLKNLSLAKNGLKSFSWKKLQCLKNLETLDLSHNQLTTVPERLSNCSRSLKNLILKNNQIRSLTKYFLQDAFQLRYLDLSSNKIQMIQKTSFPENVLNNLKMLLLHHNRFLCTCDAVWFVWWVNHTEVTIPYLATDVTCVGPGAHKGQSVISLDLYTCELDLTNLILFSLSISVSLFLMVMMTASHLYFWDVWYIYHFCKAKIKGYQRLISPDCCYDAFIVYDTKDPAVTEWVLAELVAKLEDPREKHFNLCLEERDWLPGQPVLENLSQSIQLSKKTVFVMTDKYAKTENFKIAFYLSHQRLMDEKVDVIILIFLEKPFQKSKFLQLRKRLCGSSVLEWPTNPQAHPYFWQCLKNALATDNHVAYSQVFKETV
Experiment: HEK-Blue hTLR7 reporter assay (NF-kB-induced SEAP, Quanti-Blue)
Assay type: cell-based
Description: HEK-Blue™ hTLR7 cells were incubated in HEK-Blue™ Detection medium and stimulated with increasing concentrations of TLR7 or TLR8 or TLR7/8 agonists. […] The EC50 was determined from dose-response curve using Prism Software.

[1] = Table 19, TLR7, drug-linkers with PEG shielding, read-out: EC50

Compound: CCCCOc1nc(N)c2[nH]c(=O)n(Cc3ccc(CN4CCC(CCNC(=O)[C@@H](N)Cc5ccc(Cn6cc(CON)nn6)cc5)CC4)cc3)c2n1 [AXC-931, (S)-2-amino-N-(2-(1-(4-((6-amino-2-butoxy-8-oxo-7,8-dihydro-9H-purin-9-yl)methyl)benzyl)piperidin-4-yl)ethyl)-3-(4-((4-((aminooxy)methyl)-1H-1,2,3-triazol-1-yl)methyl)phenyl)propanamide]
- EC50 [1]: 490 nM

Compound: CCCCOc1nc(N)c2[nH]c(=O)n(Cc3ccc(CN4CCC(CCNC(=O)OC(C)(C)C)CC4)cc3)c2n1 [AXC-877, tert-butyl 2-(1-(4-((6-amino-2-butoxy-8-oxo-7,8-dihydro-9H-purin-9-yl)methyl)benzyl)piperidin-4-yl)ethylcarbamate]
- EC50 (Table 11, TLR7 activities, read-out: EC50): 5.5 nM
- EC50 (text to Table 11, TLR7, read-out: EC50): < 10 nM

Compound: CCCCOc1nc(NC(C)=O)c2[nH]c(=O)n(Cc3ccc(CN4CCC(C5CCN(C(=O)CON)CC5)CC4)cc3)c2n1 [AXC-981, N-(9-(4-((1′-(2-(aminooxy)acetyl)-4,4′-bipiperidin-1-yl)methyl)benzyl)-2-butoxy-8-oxo-8,9-dihydro-7H-purin-6-yl)acetamide]
- EC50 [1]: 10.1 nM

Compound: CCCCOc1nc(N)c2[nH]c(=O)n(Cc3ccc(CN4CCC(CCNC(=O)[C@@H](N)CO)CC4)cc3)c2n1 [AXC-933, (S)-2-amino-N-(2-(1-(4-((6-amino-2-butoxy-8-oxo-7,8-dihydro-9H-purin-9-yl)methyl)benzyl)piperidin-4-yl)ethyl)-3-hydroxypropanamide]
- EC50 [1]: 40 nM

- EC50 (Core 3 compounds, assay not given, read-out: EC50): > 10000 nM
Compound: CC(C)(C)OC(=O)NCCC1CCN(Cc2ccc(Cn3ccc4c5nc(N)ncc5ccc43)cc2)CC1 [AXC-968, tert-butyl (2-(1-(4-((2-amino-7H-pyrrolo[2,3-h]quinazolin-7-yl)methyl)benzyl)piperidin-4-yl)ethyl)carbamate]

- EC50 (Table 10, read-out: TLR7 EC50): 249 nM
Compound: CCCCc1nc2c(N)nc3ccccc3c2n1CCCCNC(=O)c1ccc(N)c(OC)c1 [AXC-725, 4-amino-N-(4-(4-amino-2-butyl-1H-imidazo[4,5-c]quinolin-1-yl)butyl)-3-methoxybenzamide]

- EC50 (Table 10, read-out: TLR7 EC50): 213 nM
Compound: CCCCc1nc2c(N)nc3cccnc3c2n1CCCCNC(=O)c1ccc(N)c(OC)c1 [AXC-736, 4-amino-N-(4-(4-amino-2-butyl-1H-imidazo[4,5-c][1,5]naphthyridin-1-yl)butyl)-3-methoxybenzamide]

Compound: CCCCOc1nc(N)c2[nH]c(=O)n(Cc3ccc(CN4CCC(CCNC(=O)CCC(CCC(=O)NCCC5CCN(Cc6ccc(Cn7c(=O)[nH]c8c(N)nc(OCCCC)nc87)cc6)CC5)NC(=O)CON)CC4)cc3)c2n1 [AXC-889, N1,N7-bis(2-(1-(4-((6-amino-2-butoxy-8-oxo-7H-purin-9(8H)-yl)methyl)benzyl)piperidin-4-yl)ethyl)-4-(2-(aminooxy)acetamido)heptanediamide]
- EC50 (Table 12, TLR7 agonists attached to a linker, read-out: TLR Agonist Payload + Linkers EC50): 697 nM

Compound: CCCCOc1nc(N)c2[nH]c(=O)n(Cc3ccc(CN4CCC(CCNC(=O)[C@H](CCCCNC(=O)CON)NC(=O)CCCc5ccccc5)CC4)cc3)c2n1 [AXC-942, (S)—N-(2-(1-(4-((6-amino-2-butoxy-8-oxo-7,8-dihydro-9H-purin-9-yl)methyl)benzyl)piperidin-4-yl)ethyl)-6-(2-(aminooxy)acetamido)-2-(4-phenylbutanamido)hexanamide]
- EC50 [1]: 387 nM

Compound: CCCCOc1nc(N)c2[nH]c(=O)n(Cc3ccc(CN4CCC(CCNC(=O)[C@H](CCCCNC(=O)CON)NC(=O)CCOCCOCCOCCOCCOCCOCCOCCOCCOCCOCCOCCOCCOCCOCCOCCOCCOCCOCCOCCOCCOCCOCCOCCOCCOCCOCCOCCOCCOCCOCCOCCOCCOCCOCCOCCOCCOC)CC4)cc3)c2n1 [AXC-941, (S)—N-(2-(1-(4-((6-amino-2-butoxy-8-oxo-7,8-dihydro-9H-purin-9-yl)methyl)benzyl)piperidin-4-yl)ethyl)-6-(2-(aminooxy)acetamido)-2-PEG37-amidohexanamide]
- EC50 [1]: 699 nM

- EC50 (Table 10, read-out: TLR7 EC50): 11.1 nM
Compound: CCc1nc2c(N)nc3ccccc3c2n1CCCCNC(=O)c1ccc(N(C)C)cc1 [AXC-738, N-(4-(4-amino-2-ethyl-1H-imidazo[4,5-c]quinolin-1-yl)butyl)-4-(dimethylamino)benzamide]

From US20230302150A1, “ANTIBODY-TLR AGONIST CONJUGATES, METHODS AND USES THEREOF” (Ambrx, Inc., priority 2020, published 2023)
